Data on two molecules can be found in PMC8769378, “Underlining the Importance of Peripheral Protic Functional Groups to Enhance the Proton Exchange of Gd-Based MRI Contrast Agents” (Inorganic Chemistry, 2021).

For series [1] the following is noted: not fitted: fixed to the value determined for GdHPADO3A ref 7; cited from earlier work.
The nature of series [2]: Stability and protonation constants of Zn^II complexes by pH potentiometry. It counts as physicochemical. From the text:
(§1) The metal complexes of biomedical interest must show a high in vivo stability, which includes high thermodynamic stability and kinetic inertness to allow targeting applications and to avoid possible toxic effects derived by metal ion and ligand release via transmetalation or transchelation reactions.[2],[3],[13] The protonation constants of L2 as well as the stability and the protonation constants of GdL2 and those of the most important endogenous divalent metal complexes (Ca^II-, Zn^II-, and Cu^II) were determined by pH potentiometry (Table 1 and Table S1). In the case of GdL1, we were interested in determining the dissociation constant of the hydroxyl group that was measured also by pH potentiometry (Table 1). Experimental details and the definitions and equations used for the evaluation of the equilibrium and kinetic data are summarized in the SI.
(§2) The stability and protonation constants of Ca^2+, Zn^2+, and Cu^2+ complexes formed with the L1 ligand were determined by pH potentiometric titration. The metal-to-ligand concentration ratio was 1:1 (the concentration of the ligand was generally 0.002 M). The protonation constants of the GdL1 and GdL2 complexes were determined using pH potentiometry by titrating the preprepared complexes from pH = 3.0 to pH = 12 for GdL2 and from pH = 4.0 to pH = 12 for GdL1 with 0.2 M NaOH. The stability constants of GdL2 were determined by the “out-of-cell” technique because of the slow formation reaction. The pH range of the complexation equilibria and the time needed to reach the equilibria were determined by relaxometry for the formation of GdL2. […] For the calculation of the stability constants of GdL2, besides the protonation constants of ligands, the stability constants of the diprotonated *Gd(H2L2) out-of-cage complexes (considered as intermediates) were also used as fixed values, which were calculated from the pH potentiometric titration curve of the Gd^3+–L2 system obtained in the pH range 1.7–4.0.
For the pH measurements and titrations, the Metrohm 888 Titrando titration workstation Metrohm-6.0234.110 combined electrode was used. […] For the calculation of [H^+] from the measured pH values, the method proposed by Irving et al. was used as follows.[34] […] The differences (A) between the measured (pHread) and calculated (−log[H^+]) pH values were used to obtain the equilibrium H^+ concentration from the pH values measured in the titration experiments (A = 0.024). […]
The stability and protonation constants of CaII-, ZnII-, CuII- and GdIII-complexes of L2, expressed by Eqs. (S2) and (S3), were determined by pH-potentiometry and spectrophotometry at 25 °C in 0.15 M […]
where i=0, 1, 2, 3. […] The stability constant of GdL2 was calculated from the equilibrium data obtained by the “out-of-cell” technique due to the slow complexation reaction. […]

A short description of series [3]: Stability constants of Gd^III complexes (out-of-cell pH potentiometry). Format: physicochemical. How it is done:
as §2
For the pH measurements and titrations, the Metrohm 888 Titrando titration workstation Metrohm-6.0234.110 combined electrode was used. […] For the calculation of [H^+] from the measured pH values, the method proposed by Irving et al. was used as follows.[34] […]

A short description of series [4]: Stability and protonation constants of Ca^II complexes by pH potentiometry. It counts as physicochemical.
Text: as §1, with “Experimental details and the definitions and equations used for the evaluation of the equilibrium and kinetic data are summarized in the SI.” left out
The stability and protonation constants of Ca^2+, Zn^2+, and Cu^2+ complexes formed with the […] ligand were determined by pH potentiometric titration. […] The protonation constants of the GdL1 and GdL2 complexes were determined using pH potentiometry by titrating the preprepared complexes from pH = 3.0 to pH = 12 for GdL2 and from pH = 4.0 to pH = 12 for GdL1 with 0.2 M NaOH. The stability constants of GdL2 were determined by the “out-of-cell” technique because of the slow formation reaction. The pH range of the complexation equilibria and the time needed to reach the equilibria were determined by relaxometry for the formation of GdL2. […]

Series [5] is described as follows: Protonation constants of the ligands by pH potentiometry. It counts as physicochemical. The note with it: I = 0.15 M NaCl, 298 K.
Text: as §1
The chemicals used for the experiments were of the highest analytical grade. The concentrations of the CaCl2, ZnCl2, CuCl2, and GdCl3 solutions were determined by complexometric titration with standardized Na2H2EDTA and xylenol orange (ZnCl2, and GdCl3), murexid (CuCl2), and Patton and Reeder (CaCl2) as indicators. The concentration of the H3L1 and H4L2 was determined by pH potentiometric titration in the presence and absence of a large (40-fold) excess of CaCl2. The pH potentiometric titrations were performed with standardized 0.2 M NaOH.
For the pH measurements and titrations, the Metrohm 888 Titrando titration workstation Metrohm-6.0234.110 combined electrode was used. Equilibrium measurements were carried out at a constant ionic strength (0.15 M NaCl) in 6 mL samples at 25 °C. The solutions were stirred, and N2 was bubbled through them. The titrations were made in the pH range 1.7–12.0. KH-phthalate (pH = 4.005) and borax (pH = 9.177) buffers were used to calibrate the pH meter. For the calculation of [H^+] from the measured pH values, the method proposed by Irving et al. was used as follows.[34] A 0.01 M HCl solution was titrated with standardized NaOH solution at 0.15 M NaCl ionic strength. The differences (A) between the measured (pHread) and calculated (−log[H^+]) pH values were used to obtain the equilibrium H^+ concentration from the pH values measured in the titration experiments (A = 0.024). For the equilibrium calculations, the stoichiometric water ionic product (pKw) was also needed to calculate [OH^–] values under basic conditions. The VNaOH–pHread data pairs of the HCl–NaOH titration obtained in the pH range 10.5–12.0 were used to calculate the pKw value (pKw = 13.79).

Series [6] in a line: Conditional stability constant pGd. Conditions: pGd = −log[Gd]free, [Gd^3+] = 1 μM, [L] = 10 μM, pH = 7.4; calculated from the constants. Format: physicochemical.

Molecules are shown by their SMILES. Marks after values point to notes of the source that are not given here.

Turning to `O=C([O-])CN1CCN(CC(=O)[O-])CCN(CC(O)C(=O)O)CCN(CC(=O)[O-])CC1.[Gd+3]` (stereo not shown) [GdL2], the τM in series [1] is 20 ^c ns.

Take `O=C(O)CN1CCN(CC(=O)O)CCN(C[C@@H](O)C(=O)O)CCN(CC(=O)O)CC1` [L2, (R)2,2′,2″-(10-(2-Carboxy-2-hydroxyethyl)-1,4,7,10-tetraazacyclododecane-1,4,7-triyl) Triacetic Acid]: in series [2] (0.15 M NaCl, 25 °C), the “ZnH2L (log K)” value is 3.32 (3); the “ZnH3L (log K)” value is reported as 2.29 (5); the “ZnHL (log K, protonation constant of the complex)” value is on record as 3.86 (5). The “ZnL (log K, stability constant)” value in series [2] (I = 0.15 M NaCl, 298 K) is reported as 17.81 (6). The “GdL (log KGdL, stability constant)” value in series [3] (I = 0.15 M NaCl, 298 K) was 19.26 (3). The “GdH2L (log K, stability constant of the protonated *Gd(H2L) out-of-cage intermediate)” value in series [3] (KGd(H2L)=[Gd(H2L)]/[Gd3+][H2L], 0.15 M NaCl, 25 °C) is given as 6.73 (3). The “CaHL (log K, protonation constant of the complex)” value in series [4] (0.15 M NaCl, 25 °C) is given as 5.20 (5). Also, the “CaL (log K, stability constant)” value in series [4] (I = 0.15 M NaCl, 298 K) is recorded as 11.63 (1). In addition, the “log K5^H” value in series [5] (first line headed log K5^H) is given as 2.47 (4). Further, in series [5] (ligand protonation constant), the “log K1^H” value was 8.95 (3), the “log K2^H” value is on record as 8.95 (2), the “log K3^H” value is given as 4.22 (3) and the “log K4^H” value is 3.74 (3). Besides, the “log K5^H” value in series [5] (second line headed log K5^H (sixth constant)) was 1.75 (4). Moreover, the pGd in series [6] is given as 16.87 ^h.
